Results as given in patent US20220289698A1, “INHIBITORS OF HUMAN ATGL” (Karl-Franzens-Universität Graz, priority 2019, published 2022).
Read-outs that look alike come from different tables or passages of the source.

Columns and labels:
human ATGL = target: T1, human ATGL (Homo sapiens, UniProt Q96AD5); assay: Ki determination, human ATGL lysates with increasing substrate concentrations; type: biochemical; conditions: non-linear regression
T1 construct: made in house; host or cells: Expi cells (lysate, not purified)
T1 sequence (Q96AD5 1-504): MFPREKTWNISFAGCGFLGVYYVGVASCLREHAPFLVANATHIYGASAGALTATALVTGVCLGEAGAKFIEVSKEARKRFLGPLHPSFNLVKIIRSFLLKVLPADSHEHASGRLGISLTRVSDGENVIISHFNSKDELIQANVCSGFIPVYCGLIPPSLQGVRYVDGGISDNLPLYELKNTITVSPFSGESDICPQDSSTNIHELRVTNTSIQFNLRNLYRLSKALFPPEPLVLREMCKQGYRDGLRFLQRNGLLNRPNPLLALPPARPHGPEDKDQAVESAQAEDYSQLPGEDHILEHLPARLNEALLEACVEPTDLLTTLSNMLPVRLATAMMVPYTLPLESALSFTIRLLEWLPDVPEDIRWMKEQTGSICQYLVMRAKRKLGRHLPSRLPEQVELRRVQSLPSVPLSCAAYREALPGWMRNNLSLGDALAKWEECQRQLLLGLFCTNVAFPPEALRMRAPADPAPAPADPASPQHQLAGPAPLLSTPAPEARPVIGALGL
Procedure: For determination of Ki values, lysates from Expi cells overexpressing human ATGL were incubated with recombinant purified ATGL co-activator CGI-58 and ATGL inhibitors at a single concentration dependent on the previously determined IC50. Increasing concentrations of substrate containing radiolabeled triolein were added and liberated FA were extracted and quantified by liquid scintillation. Inhibitors were dissolved in DMSO which was used as control. Ki was determined via non-linear regression analysis. Samples were measured in triplicates.

[1] = system: differentiated hMADS adipocytes; assay: Isoproterenol-stimulated lipolysis in differentiated hMADS adipocytes; type: cell-based; conditions: Homo sapiens, Adipocyte, 2 h pretreatment, 1 μM isoproterenol 1 h
Procedure: Human differentiated hMADS adipocytes were pretreated with DMSO or ATGL inhibitors for 2 h. Subsequently, lipolysis was stimulated with 1 μM Isoproterenol for 1 h and fatty acid release was determined from media via NEFA Reagent (Wako Diagnostics). Samples were measured in triplicates.
Human differentiated hMADS adipocytes were pretreated with DMSO or ATGL inhibitors for 2 h. Subsequently, lipolysis was stimulated with 1 μM Isoproterenol for 1 h and glycerol release was determined from media via Free glycerol reagent (Sigma Aldrich). Samples were measured in triplicates.

HepG2 cells = assay: Toxicity screening (LDH) in HepG2 cells; type: cell-based, human; conditions: 24 h treatment, LDH release
Procedure: HepG2 cells were seeded in 96 well plates and at 50% confluency treated with DMSO (0.5% final conc.) or ATGL Inhibitors for 24 h in DMEM+P/S+3% heat inactivated FCS (3 h at 62° C.). Subsequently, LDH activity of 50 μl medium was determined via the Roche LDH Kit. Samples measured in triplicates.

Compound	Ki (human ATGL)	melting point	Tox HepG2 (LDH) seen from (HepG2 cells)	also measured
CCOc1ccc(-c2cc(OC)cc(C(=O)OC(C)C)n2)cc1 [Example 35]	0.5 µM	79 to 81 °C		
CCOc1ccc(-c2nc(C(=O)OCc3cccs3)cs2)cc1 [Example 152, Thiophen-2-ylmethyl 2-(4-ethoxyphenyl)thiazole-4-carboxylate]	8.2 µM		200 µM	IC50 ([1]; fatty acid release, read-out: IC50 hMADS FA release): 12 µM; IC50 ([1]; glycerol release, read-out: IC50 hMADS glycerol release): 10 µM
CCOc1ccc(-c2cccc(C(=O)OCc3cccs3)n2)cc1 [Example 189, Thiophen-2-ylmethyl 6-(4-ethoxyphenyl)picolinate]		93 to 94 °C		
CCOc1ccc(-c2cccc(C(=O)OCc3ccco3)n2)cc1 [Example 190, Furan-2-ylmethyl 6-(4-ethoxyphenyl)picolinate]		76 to 80 °C		
COc1cc(C(=O)OC(C)C)nc(-c2ccc(OC(C)C)cc2)c1 [Example 201, Isopropyl 6-(4-isopropoxyphenyl)-4-methoxypicolinate]		70 to 71 °C		
CC#CCOC(=O)c1csc(-c2ccc(OCC)cc2)n1 [Example 209, But-2-yn-1-yl 2-(4-ethoxyphenyl)thiazole-4-carboxylate]			200 µM	
